Results from US9817000B2, “Method for identifying compounds that modulate a T2R taste receptor” (The Regents of the University of California, priority 1999, dated 2017).

How the values were obtained:
Type in all cases: cell-based
mT2R5 (C57BL/6-allele) = biological target: T1, mT2R5 (C57BL/6-allele) (Mus musculus, UniProt Q9JKT4, G155D/I85V/L294R/T101A/T44I); assay: FURA-2 [Ca2+]i imaging in HEK-293 cells expressing Gα15 and rho-mT2R5 from non-taster strain (C57BL/6 allele)
T1 construct: expressed in transfected cells; host or cells: modified HEK-293 cells (PEAKrapid) expressing Gα15
T1 sequence (Q9JKT4 1-300 T44I/I85V/T101A/G155D/L294R): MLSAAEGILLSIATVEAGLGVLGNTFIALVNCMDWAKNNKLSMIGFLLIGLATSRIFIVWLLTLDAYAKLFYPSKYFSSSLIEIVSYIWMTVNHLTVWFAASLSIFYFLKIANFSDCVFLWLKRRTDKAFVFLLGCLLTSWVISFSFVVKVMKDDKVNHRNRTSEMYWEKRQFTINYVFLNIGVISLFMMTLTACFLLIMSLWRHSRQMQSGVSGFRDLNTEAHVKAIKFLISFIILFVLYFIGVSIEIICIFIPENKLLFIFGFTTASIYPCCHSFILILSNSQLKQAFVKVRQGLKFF
Protocol: A bridge overlap PCR extension technique was used to generate rho-T2R chimeras, which contain the first 39 amino acids of bovine rhodopsin in frame with human and rodent T2R coding sequences (Mehta and Singh, Biotechniques 26:1082-1086 (1999). All receptors were cloned into a pEAK10 mammalian expression vector (Edge Biosystems, MD). Modified HEK-293 cells (PEAK^rapid cells; Edge BioSystems, MD) were grown and maintained at 37° C. in UltraCulture medium (Bio Whittaker) supplemented with 5% fetal bovine serum, 100 μg/ml Gentamycin sulphate (Fisher), 1 μg/ml Amphotericin B and 2 mM GlutaMax I (Lifetechnologies). […]
Transfected cells were washed once in Hank's balanced salt solution with 1 mM sodium pyruvate and 10 mM HEPES, pH 7.4 (assay buffer), and loaded with 2 μM FURA-2 AM (Molecular Probes) for 1 h at room temperature. […] [Ca^2+]i changes were monitored using a Nikon Diaphot 200 microscope equipped with a 10×/0.5 fluor objective with the TILL imaging system (T.I.L.L Photonics GmbH). Acquisition and analysis of the fluorescence images used TILL-Vision software. Generally, [Ca^2+]i was measured for 80-120 s by sequentially illuminating cells for 200 ms at 340 nm and 380 nm and monitoring the fluorescence emission at 510 nm using a cooled CCD camera. The F340/F380 ratio was analyzed to measure [Ca^2+]i. […]

mT2R8 = biological target: T2, mT2R8 (Mus musculus, UniProt Q9JKT3); assay: FURA-2 [Ca2+]i imaging in HEK-293 cells expressing Gα15 and rho-mT2R8; conditions: for [Ca2+]i response (FURA-2): 1.5 mM denatonium
T2 construct: expressed in transfected cells; host or cells: HEK-293 cells (PEAKrapid) expressing Gα15
T2 sequence (Q9JKT3 1-297): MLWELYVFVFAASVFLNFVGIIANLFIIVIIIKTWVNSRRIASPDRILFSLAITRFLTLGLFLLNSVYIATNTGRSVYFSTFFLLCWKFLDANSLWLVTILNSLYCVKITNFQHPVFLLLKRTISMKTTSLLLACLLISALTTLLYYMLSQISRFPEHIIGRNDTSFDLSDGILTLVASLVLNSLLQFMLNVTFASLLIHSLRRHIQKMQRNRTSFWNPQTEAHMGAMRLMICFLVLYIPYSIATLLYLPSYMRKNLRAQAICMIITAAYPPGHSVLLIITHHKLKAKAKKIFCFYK
Excerpt: (§1) In this system, receptor activation leads to increases in intracellular calcium [Ca2+]i, which can be monitored at the single cell level using the FURA-2 calcium-indicator dye (Tsien et al., Cell Calcium 6:145-157 (1985)). To test and optimize Gα15 coupling, two different GPCRs, a Gαi-coupled μ-opioid receptor (Reisine, Neuropharm. 34:463-472 (1995)) and a Gαq-coupled mGluR1 receptor (Masu et al., Nature 349:760-765 (1991)), were used. Transfection of these receptors into HEK-293 cell produced robust, agonist-selective, and Gα15-dependent Ca^2+ responses (FIG. 1).
(§2) A number of studies have shown that many GPCRs, in particular sensory receptors, require specific “chaperones” for maturation and targeting through the secretory pathway (Baker et al., Embo J 13:4886-4895 (1994); Dwyer et al., Cell 93:455-466 (1998)). Recently, Krautwurst et al. (Cell 95:917-926 (1998)) generated chimeric receptors consisting of the first 20 amino acids of rhodopsin and various rodent olfactory receptors. These were targeted to the plasma membrane and functioned as odorant receptors in HEK-293 cells. To determine whether rhodopsin sequences can also help target T2Rs to the plasma membra, rhodopsin-T2R chimeras (rho-T2Rs) were constructed. […] Similar results were obtained with 11 human and 16 rodent T2Rs (see below). To further enhance the level of T2R expression, rho-T2Rs were placed under the control of a strong EF-1α promoter, and introduced as episomal plasmids into modified HEK-293 cells expressing Gα15 (pEAKrapid cells).
(§3) A bridge overlap PCR extension technique was used to generate rho-T2R chimeras, which contain the first 39 amino acids of bovine rhodopsin in frame with human and rodent T2R coding sequences (Mehta and Singh, Biotechniques 26:1082-1086 (1999). All receptors were cloned into a pEAK10 mammalian expression vector (Edge Biosystems, MD). Modified HEK-293 cells (PEAK^rapid cells; Edge BioSystems, MD) were grown and maintained at 37° C. in UltraCulture medium (Bio Whittaker) supplemented with 5% fetal bovine serum, 100 μg/ml Gentamycin sulphate (Fisher), 1 μg/ml Amphotericin B and 2 mM GlutaMax I (Lifetechnologies). For transfection, cells were seeded onto matrigel coated 24-well culture plates or 35 mm recording chambers. After 24 h at 37° C., cells were washed in OptiMEM medium (Lifetechnologies) and transfected using LipofectAMINE reagent (Lifetechnologies). Transfection efficiencies were estimated by co-transfection of a GFP reporter plasmid, and were typically >70%. Immunofluoresence staining, and activity assays were performed 36-48 h after transfection.
Transfected cells were washed once in Hank's balanced salt solution with 1 mM sodium pyruvate and 10 mM HEPES, pH 7.4 (assay buffer), and loaded with 2 μM FURA-2 AM (Molecular Probes) for 1 h at room temperature. The loading solution was removed and cells were incubated in 200 μl of assay buffer for 1 h to allow the cleavage of the AM ester. […] [Ca^2+]i changes were monitored using a Nikon Diaphot 200 microscope equipped with a 10×/0.5 fluor objective with the TILL imaging system (T.I.L.L Photonics GmbH). Acquisition and analysis of the fluorescence images used TILL-Vision software. Generally, [Ca^2+]i was measured for 80-120 s by sequentially illuminating cells for 200 ms at 340 nm and 380 nm and monitoring the fluorescence emission at 510 nm using a cooled CCD camera. The F340/F380 ratio was analyzed to measure [Ca^2+]i.
Kinetics of activation and deactivation were measured using a bath perfusion system. […]

hT2R4 = biological target: T3, hT2R4 (Homo sapiens, UniProt Q9NYW5); assay: FURA-2 [Ca2+]i imaging in HEK-293 cells expressing Gα15 and rho-hT2R4; conditions: for [Ca2+]i response (FURA-2): 1.5 mM denatonium
T3 construct: Full-length hT2Rs were isolated by PCR amplification of genomic DNA; expressed in transfected cells; host or cells: HEK-293 cells (PEAKrapid) expressing Gα15
T3 sequence (Q9NYW5 1-299): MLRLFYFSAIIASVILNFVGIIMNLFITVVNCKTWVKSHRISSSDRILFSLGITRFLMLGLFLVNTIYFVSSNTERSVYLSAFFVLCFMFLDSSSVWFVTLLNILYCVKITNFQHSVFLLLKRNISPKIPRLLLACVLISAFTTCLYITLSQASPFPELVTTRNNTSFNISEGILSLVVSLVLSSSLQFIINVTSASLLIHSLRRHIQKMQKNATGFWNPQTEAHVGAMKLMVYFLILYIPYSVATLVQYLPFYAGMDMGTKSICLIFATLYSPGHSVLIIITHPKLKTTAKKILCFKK
Excerpt: as §1, §2, §3
Transfected cells were washed once in Hank's balanced salt solution with 1 mM sodium pyruvate and 10 mM HEPES, pH 7.4 (assay buffer), and loaded with 2 μM FURA-2 AM (Molecular Probes) for 1 h at room temperature. The loading solution was removed and cells were incubated in 200 μl of assay buffer for 1 h to allow the cleavage of the AM ester. For most experiments, 24-well tissue culture plates containing cells expressing a single rho-T2R were stimulated with 200 μl of a 2× tastant solution (see next section). [Ca^2+]i changes were monitored using a Nikon Diaphot 200 microscope equipped with a 10×/0.5 fluor objective with the TILL imaging system (T.I.L.L Photonics GmbH). Acquisition and analysis of the fluorescence images used TILL-Vision software. Generally, [Ca^2+]i was measured for 80-120 s by sequentially illuminating cells for 200 ms at 340 nm and 380 nm and monitoring the fluorescence emission at 510 nm using a cooled CCD camera. The F340/F380 ratio was analyzed to measure [Ca^2+]i.
Kinetics of activation and deactivation were measured using a bath perfusion system. Cells were seeded onto a 150 μl microperfusion chamber, and test solutions were pressure-ejected with a picospritzer apparatus (General Valve, Inc.). Flow-rate was adjusted to ensure complete exchange of the bath solution within 4-5 s. […]

[1] = concentrations as in FIG. 4 (denatonium 5 mM)

| SMILES | EC50 (mT2R5 (C57BL/6-allele)) | dose response compared with receptor from taster strains (mT2R5 (C57BL/6-allele)) | receptor activation (mT2R8) | [Ca2+]i response (FURA-2) (mT2R8; absence of Gα15) | [Ca2+]i response (FURA-2) (mT2R8; with Gα15) | increase in [Ca2+]i on tastant stimulation (mT2R8; [1]) | [Ca2+]i response (hT2R4) | [Ca2+]i response (FURA-2) (hT2R4; absence of Gα15) | [Ca2+]i response (FURA-2) (hT2R4; with Gα15) | increase in [Ca2+]i on tastant stimulation (hT2R4; [1]) | threshold of dose-dependent response (hT2R4; in µM) |
| --- | --- | --- | --- | --- | --- | --- | --- | --- | --- | --- | --- |
| C[C@@H]1C[C@@H]([C@H](O)CC2CC(=O)NC(=O)C2)C(=O)[C@@H](C)C1 [cycloheximide] | ~2300 nM | shift in cycloheximide sensitivity | – | – | – | – | – | – | – | – | – |
| CC[N+](CC)(CC(=O)Nc1c(C)cccc1C)Cc1ccccc1 [denatonium] | – | – | activated | No increase in [Ca2+]i | robust Gα15 dependent responses | increase in [Ca2+]i could be induced | significant transient increase in [Ca2+]i | No increase in [Ca2+]i | robust Gα15 dependent responses | increase in [Ca2+]i could be induced | ~100 |
